Measured values taken from patent publication US20260271926A1, “BACTERIA-RESPONSIVE PARTICLES, METHODS FOR PREPARATION, AND USE IN PACKAGING OR ON SURFACES” (priority 2023, published 2026).

Tests used:
[1] = Calcein fluorescence stability in 1685 NYC III medium and G. vaginalis supernatant; assay type: physicochemical; settings: 10 μg/mL calcein, 37° C., 140 hours
Method: Bacteria-responsive calcein release of liposomes. Calcein's stability in different media was evaluated by measuring its fluorescence intensity that varied with time in 1685 NYC III medium and G. vaginalis supernatant, respectively. Briefly, calcein was dissolved in the medium to reach a concentration of 10 μg/mL (with 1% v/v penicillin/streptomycin) added. The solution was incubated at 37° C. and shaken at 100 rpm (avoid light). Samples were taken at different time intervals and changes of fluorescence intensity were monitored.

[2] = tested on: human red blood cells (RBCs); experiment: Hemolytic activity assay; assay type: cell-based; settings: 2% human RBCs, 30 min, 37° C.
Method: Hemolytic Activity Assay. For hemolytic assays, washed human red blood cells (RBCs) (Innovative Research, Novi, MI USA) were suspended in 1×PBS (pH 7.2, Wisent, Quebec City, QC Canada) to a final concentration of 2%. For sequestration studies, liposomal samples were diluted in PBS to the desired concentration and added to the erythrocytes. The hemolytic reaction was then initiated through the addition of either bacterial supernatant normalized to a 0.5 McFarland standard or recombinant S. pneumoniae serotype 2 PLY (E. coli host expression, MyBioSource, San Diego, CA USA) at the desired volume or concentration. For assays involving PLY, the toxin was preincubated with 2 mM dithiothreitol (DTT) for 1 hr at room temperature prior to the assay in order to reduce the cysteine residue present in the undecapeptide sequence and activate the protein [59]. The solution was incubated in a 1.5 ml Eppendorf microtube for 30 min at 37° C. and non-lysed RBCs were pelleted via centrifugation at 1000×g for 10 min at 4° C. The supernatant was then collected and transferred to a 96 well plate, with the extent of hemoglobin release determined via absorbance measurements at 450 nm. A control set was also included, involving a negative control of RBCs in only PBS and a positive control of RBCs in a 0.02% Triton™ X-100 solution (100% lysis). Percent lysis was determined from these readouts as per Eq (4): […]

| Compound | calcein fluorescence decrease [1] | concentration giving full lysis [2] [ng/mL] |
| --- | --- | --- |
| O=C(O)CN(CC(=O)O)Cc1cc2c(cc1O)Oc1cc(O)c(CN(CC(=O)O)CC(=O)O)cc1C21OC(=O)c2ccccc21 [calcein] | 11-15% |  |
| pneumolysin [PLY] |  | 200 |
